This note sets out measurements from patent US20170136008A1, “OXABICYCLOHEPTANES AND OXABICYCLOHEPTENES FOR THE TREATMENT OF OVARIAN CANCER” (priority 2014, published 2017).

Structures are written as SMILES.

In experiment [1] the test system is PEO1-STOP (PEO-1s) ovarian cancer cell line. As to the kind of experiment: MTT cytotoxicity assay, PEO1-STOP. It is filed as cell-based, human. To be noted: Homo sapiens, read-out: IC50, viability of ovarian cancer cell line. How it is done:
SKOV-3 ovarian cancer cells were purchased from American Type Culture Collection (ATCC) (Manassas, Va.). SKOV-3 cells were cultured in McCoy's 5A medium (ATCC, Manassas, Va.) supplemented with 10% fetal bovine serum and 100 units/mL penicillin G sodium, 100 ug/mL streptomycin sulfate, and 292 μg/ml, L-glutamine (BioWhittaker, Wakersville, Md.). Luciferase-expressing cells were generated by infecting SKOV-3 cells with pCLNCX-luciferase retrovirus (SKOV-3-Luc) as previously reported (Wei, B. R. et al. 2009). Human OVCAR-8 ovarian cancer cells were provided by the National Cancer Institute (part of the NCI-60 collection). The PEO1, PEO4, and PEO6 ovarian cancer cell lines have previously been characterized (Langdon, S. P. et al. 1988) and were kindly provided by Dr. Ian Goldlust (National Center for Advancing Translational Sciences, Shady Grove, Md.). […]
Cell survival was measured by the 3-(4,5-dimethylthiazol-2-yl)-2,5-diphenyltetrazolium bromide (MTT, Invitrogen) assay. […] Absorbance values were determined at […] on a Spectra Max 250 spectrophotometer (Molecular Devices, Sunnyvale, Calif.). […] Cell viability was analyzed via the MTT assay as described above. […]
In general terms: Tetrazolium dyes change colour on reduction, which living cells bring about.

The next experiment concerns OVCAR-8 cells. As to the kind of experiment: Cell-cycle analysis (FACS), OVCAR-8. It is filed as cell-based, human. To be noted: LB100 2 μM. How it is done: For cell-cycle analysis, cells were washed with PBS and fixed overnight in ice-cold 70% ethanol and stored at 4° C. Cells were then centrifuged and resuspended in 100 U RNAse (Sigma-Aldrich), and incubated at 37° C. for 20 min. Propidiumidodide solution (Invitrogen, 500 μL, 50 μg/mL in DPBS) was added to each tube and incubated in the dark at 4° C. overnight. Flow cytometry analysis was performed with CellQuestPro and data analysis was completed with ModFit LT. All data is in triplicate and presented as a percent mean±SD.

For experiment [2], the system named is BRCA1, Wee1, Chk1, γH2AX phosphorylation in SKOV-3 tumors. Nature of the experiment: Ex-vivo western blot of intraperitoneal tumors. The class given is in vivo, mouse. Particulars: LB100 alone 1.5 mg/kg, 4 h. The procedure: Whole cell and homogenized tumor tissues were lysed in NP-40 lysis buffer [50 mM Tris/HCl, pH 7.4, 150 mM NaCl and 1% Nonidet P40, supplemented with Complete Protrase Inhibitor Cocktail tablets and PhosStop phosphatase inhibitors (Roche, Indianapolis, Ind.)] and prepared as previously described (Madigan, J. P. et al. 2009). Protein (40 μg) was resolved on SDS/PAGE (12% or 15% gels) and transferred onto Immobilon PVDF membrane. The membrane was then blocked for 1 hour at room temperature in 5% (w/v) non-fat milk in TBS-Tween and probed overnight with primary antibodies. […]
Five- to seven-week-old female nude athymic mice (nu/nu) were obtained from NCI (Frederick, Md.), maintained in accredited animal facilities and used as stipulated by the U.S. Public Health Service Policy on Humane Care and Use of Laboratory Animals, in accordance with institutional reviews (http://oacu.odnih.gov). […] Tumor growth was measured twice a week via bioluminescence imaging (BLI) as previously described (Bakhsheshian, J. et al. 2013). […] Relative intensity of the BLI signal for each mouse was calculated by dividing the total luminescence for each session by the total luminescence measured on day 1 of treatment. […] Toxicity of the treatment regimens was assessed by the degree of weight loss and the overall health status was continuously monitored by a veterinarian on staff. […]

For the molecule `CN1CCN(C(=O)C2C(C(=O)O)[C@H]3CC[C@@H]2O3)CC1` (some centres unmarked) [LB100], the IC50 in experiment [1] was determined as 6.9 ± 1 µM. Besides, in the experiment with OVCAR-8 cells (24 h), the “G1 (%)” value was 45.4 ± 1.5%, the “G2/M (%)” value is on record as 17.6 ± 0.4% and the “S (%)” value is given as 37.0 ± 1.6%. Besides, in the experiment on OVCAR-8 cells (48 h), the “G1 (%)” value is given as 55.3 ± 0.4%, the “G2/M (%)” value was determined as 14.9 ± 1.5% and the “S (%)” value amounted to 29.9 ± 1.1%. In addition, the “phosphorylation of BRCA1, Wee1, Chk1, γH2AX” value in experiment [2] is listed as “induced hyperphosphorylation”.

In general, IC50 refers to the concentration needed to halve the response being measured.
